From patent US5824771A, “Cyclic CRF agonists” (The Salk Institute for Biological Studies, priority 1997, dated 1998)
Bridge positions count the residues as written; N and C are the ends. Square brackets hold non-standard residues; d marks the D form. Peptide text beside a SMILES is read from it. Nle = CCCC[C@H](N)C(=O)O

Legend:
[1] = Relief of inflammation on administration; type: in vivo; conditions: administration of the peptide
[2] = system: ACTH and β-END-LI secretion; assay: Secretion of ACTH and β-END-LI on administration of the peptide (in vivo testing)
Description: (§1) The cyclic CRF agonists are examined for their effects on the secretion of ACTH and β-endorphin in vitro and also in vivo. […] In vivo testing is carried out using the general procedure set forth in C. Rivier et al., Science, 218, 377 (1982).

[3] = system: rat anterior pituitary cells; assay: In vitro stimulation of ACTH and β-endorphin secretion by cultured rat pituitary cells, potency compared with oCRF (Standard) or r/hCRF; type: cell-based; conditions: for in vitro potency to stimulate secretion of ACTH relative to the Standard: relative to the laboratory Standard (synthetic oCRF), cultured rat pituitary cells, limits in parentheses; for in vitro biopotency, comparison in words: compared with the Standard or with a named analog
Description: as §1

[4] = Lowering of blood pressure on peripheral or iv administration; type: in vivo; conditions: iv injection / administered intravenously

| Compound | relief of inflammation, in words [1] | stimulation of secretion of ACTH and β-END-LI on administration of the peptide, in words [2] | in vitro potency to stimulate secretion of ACTH relative to the Standard [3] | lowering of blood pressure on iv injection, in words [4] | in vitro biopotency, comparison in words [3] |
| --- | --- | --- | --- | --- | --- |
| CCCC[C@H](NC(=O)[C@H](CCC(=O)O)NC(=O)[C@H](CC(C)C)NC(=O)[C@H](CCCC)NC(=O)[C@H](CCC(=O)O)NC(=O)[C@H](CCCNC(=N)N)NC(=O)[C@H](CC(C)C)NC(=O)[C@H](CC(C)C)NC(=O)[C@H](Cc1c[nH]cn1)NC(=O)[C@@H](Cc1ccccc1)NC(=O)[C@@H](NC(=O)[C@H](CC(C)C)NC(=O)[C@H](CC(=O)O)NC(=O)[C@H](CC(C)C)NC(=O)[C@H](CO)NC(=O)[C@@H](NC(=O)[C@H]1CCCN1C(=O)[C@@H]1CCCN1C(C)=O)[C@@H](C)CC)[C@@H](C)O)C(=O)N[C@@H](C)C(=O)N[C@@H](CCCCN)C(=O)N[C@@H](C)C(=O)N[C@@H](CCC(=O)O)C(=O)N[C@@H](CCC(N)=O)C(=O)N[C@@H](CCC(=O)O)C(=O)N[C@@H](C)C(=O)N[C@@H](CCC(=O)O)C(=O)N[C@H]1CCC(=O)NCCCC[C@@H](C(=O)N[C@@H](CC(N)=O)C(=O)N[C@@H](CCCNC(=N)N)C(=O)N[C@@H](CC(C)C)C(=O)N[C@@H](CC(C)C)C(=O)N[C@@H](CC(C)C)C(=O)N[C@@H](CCC(=O)O)C(=O)N[C@@H](CCC(=O)O)C(=O)N[C@@H](C)C(N)=O)NC(=O)[C@@H](Cc2c[nH]cn2)NC(=O)[C@H](C)NC1=O [Example 8 C, (cyclo 30-33)[Ac-Pro^4, D-Pro^5, D-Phe^12, Nle^18,21, Glu^30, D-His^32, Lys^33]-α-helical CRF(4-41)] (Ac-P[dP]ISLDLT[dF]HLLRE[Nle]LE[Nle]AKAEQEAEEA[dH]KNRLLLEEA-NH2; lactam 27-30) | relieves inflammation | – | – | – | – |
| (cyclo 30-33)[Ac-Agl(Me,Ac)^7, D-Phe^12, Nle^21,38, Glu^30, Lys^33 ]-r/hCRF(7-41) [Example 19 G] | – | stimulates the secretion of ACTH and β-END-LI | about 3.4 times | – | – |
| (cyclo 30-33)[Ac-Pro^4, D-Phe^12, CML^17, Nle^21,38, Glu^30, D-His^32, Lys^33 ]-r/hCRF (4-41) [Example 9 E] | – | stimulates the secretion of ACTH and β-END-LI | – | lowers blood pressure | – |
| CCCC[C@H](NC(=O)[C@H](CCC(=O)O)NC(=O)[C@@H](NC(=O)[C@H](CCCC)NC(=O)[C@H](CC(N)=O)NC(=O)[C@H](CCCNC(=N)N)NC(=O)[C@H](CC(C)C)NC(=O)[C@H](CC(C)C)NC(=O)[C@H](Cc1c[nH]cn1)NC(=O)[C@@H](Cc1ccccc1)NC(=O)[C@@H](NC(=O)[C@H](CC(C)C)NC(=O)[C@H](CC(=O)O)NC(=O)[C@@H](NC(=O)[C@H](CO)NC(=O)[C@@H](NC(=O)[C@H]1CCCN1C(=O)[C@@H]1CCCN1C(C)=O)[C@@H](C)CC)[C@@H](C)CC)[C@@H](C)O)[C@@H](C)CC)C(=O)N[C@@H](C)C(=O)N[C@@H](CCCNC(=N)N)C(=O)N[C@H](C(=O)N[C@@H](CCC(=O)O)C(=O)N[C@@H](CC(N)=O)C(=O)N[C@@H](CCC(=O)O)C(=O)N[C@@H](CCCNC(=N)N)C(=O)N[C@@H](CCC(=O)O)C(=O)N[C@H]1CCC(=O)NCCCC[C@@H](C(=O)N[C@@H](CC(N)=O)C(=O)N[C@@H](CCCNC(=N)N)C(=O)N[C@@H](CCCCN)C(=O)N[C@@H](Cc2ccc(O)cc2)C(=O)N[C@@H](CC(C)C)C(=O)N[C@@H](CC(=O)O)C(=O)N[C@@H](CCC(=O)O)C(=O)N[C@H](C(N)=O)C(C)C)NC(=O)[C@@H](Cc2c[nH]cn2)NC(=O)[C@H](C)NC1=O)[C@@H](C)CC [Example 8 E, (cyclo 30-33)[Ac-Pro^4, D-Pro^5, D-Phe^12, Nle^18,21, Glu^30, D-His^32, Lys^33]-sucker urotensin(4-41)] (Ac-P[dP]ISIDLT[dF]HLLRN[Nle]IE[Nle]ARIENEREEA[dH]KNRKYLDEV-NH2; lactam 27-30) | relieves inflammation | – | – | – | – |
| (cyclo 30-33)[Ac-Pro^4, D-Phe^12, CML^14, Nle^21,38, Glu^30, D-His^32, Lys^33 ]-r/hCRF(4-41) [Example 9 A] | – | stimulates the secretion of ACTH and β-END-LI | – | lowers blood pressure | – |
| (cyclo 30-33)[Ac-Ser^7, D-Phe^12, CML^18,27, Nle^21,38, Glu^30, Lys^33 ]-r/hCRF(7-41) [Example 20 C] | – | stimulates the secretion of ACTH and β-END-LI | – | lowers blood pressure | – |
| (cyclo 30-33)[Ac-Pro^4, D-Pro^5, D-Phe^12, Nle^21,38, CML^27, Glu^30, D-His^32, Lys^33 ]-r/hCRF(4-41) [Example 9 C D-Pro^5 analog] | – | stimulates the secretion of ACTH and β-END-LI | about 7 times | – | – |
| (cyclo 30-33)[Ac-Pro^4, D-Phe^12, CML^19, Nle^21,38, Glu^30, D-His^32, Lys^33 ]-r/hCRF (4-41) [Example 9 B] | – | stimulates the secretion of ACTH and β-END-LI | – | lowers blood pressure | – |
| CCCC[C@H](NC(=O)[C@H](CCC(=O)O)NC(=O)[C@@H](NC(=O)[C@H](CCCC)NC(=O)[C@H](CC(N)=O)NC(=O)[C@H](CCCNC(=N)N)NC(=O)[C@H](CC(C)C)NC(=O)[C@H](CC(C)C)NC(=O)[C@H](Cc1c[nH]cn1)NC(=O)[C@@H](Cc1ccccc1)NC(=O)[C@@H](NC(=O)[C@H](CC(C)C)NC(=O)[C@H](CC(=O)O)NC(=O)[C@@H](NC(=O)[C@H](CO)NC(=O)[C@@H](NC(=O)[C@H]1CCCN1C(=O)[C@@H]1CCCN1C(C)=O)[C@@H](C)CC)[C@@H](C)CC)[C@@H](C)O)[C@@H](C)CC)C(=O)N[C@@H](C)C(=O)N[C@@H](CCCNC(=N)N)C(=O)N[C@@H](CC(N)=O)C(=O)N[C@@H](CCC(=O)O)C(=O)N[C@@H](CC(N)=O)C(=O)N[C@@H](CCC(N)=O)C(=O)N[C@@H](CCCNC(=N)N)C(=O)N[C@@H](CCC(=O)O)C(=O)N[C@H]1CCC(=O)NCCCC[C@@H](C(=O)N[C@@H](CC(N)=O)C(=O)N[C@@H](CCCNC(=N)N)C(=O)N[C@@H](CCCCN)C(=O)N[C@@H](Cc2ccc(O)cc2)C(=O)N[C@@H](CC(C)C)C(=O)N[C@@H](CC(=O)O)C(=O)N[C@@H](CCC(=O)O)C(=O)N[C@H](C(N)=O)C(C)C)NC(=O)[C@@H](Cc2c[nH]cn2)NC(=O)[C@H](C)NC1=O [Example 8 A, (cyclo 30-33)[Ac-Pro^4, D-Pro^5, D-Phe^12, Nle^18,21, Glu^30, D-His^32, Lys^33]-Carp Urotensin I(4-41)] (Ac-P[dP]ISIDLT[dF]HLLRN[Nle]IE[Nle]ARNENQREEA[dH]KNRKYLDEV-NH2; lactam 27-30) | relieves inflammation | – | – | – | – |
| (cyclo 30-33)[Ac-D/L-MeAgl^7, D-Phe^12, Nle^21,38, Glu^30, Lys^33 ]-r/hCRF(7-41) [Example 19 B] | – | stimulate the secretion of ACTH and β-END-LI | – | – | less potent than the Standard |
| (cyclo 30-33)[Ac-D/L-Agl(Me,For)^7, D-Phe^12, Nle^21,38, Glu^30, Lys^33 ]-r/hCRF(7-41) [Example 19 D] | – | stimulates the secretion of ACTH and β-END-LI | – | – | less potent than the Standard |
| (cyclo 30-33)[Ac-Pro^4, D-Phe^12, CML^15, Nle^21,38, Glu^30, D-His^32, Lys^33 ]-r/hCRF(4-41) [Example 9] | – | stimulates the secretion of ACTH and β-END-LI | – | lowers blood pressure | – |
| (cyclo 30-33)[Ac-Pro^4, D-Phe^12, Nle^21,38, Glu^30, D-His^32, Lys^33, CML^37 ]-r/hCRF(4-41) [Example 9 D] | – | stimulates the secretion of ACTH and β-END-LI | – | lowers blood pressure | – |
| (cyclo 30-33)[Ac-Ser(OMe)^7, D-Phe^12, Nle^21,38, Glu^30, Lys^33 ]-r/hCRF(7-41) [Example 19 I] | – | stimulates the secretion of ACTH and β-END-LI | – | – | – |
| (cyclo 30-33)[Ac-Pro^4,D-Phe^12, Nle^21,38, Glu^30, D-Amp^32, Lys^33 ]-r/hCRF(4-41) [Example 6 D] | – | stimulates the secretion of ACTH and β-END-LI | – | lowers blood pressure | – |
| (cyclo 30-33)[Ac-Pro^4, D-Phe^12, Nle^21,38, CML^27, Glu^30, D-His^32, Lys^33 ]-r/hCRF(4-41) [Example 9 C] | – | stimulates the secretion of ACTH and β-END-LI | – | lowers blood pressure | – |
